Assay results taken from publication PMC6628920 (Chemico-biological interactions, 2018).

Tests used:
[1] = target: MRP1 (Homo sapiens, UniProt P33527); assay type: in vitro ADME
[2] = target: T1, MRP4 (Homo sapiens, UniProt O15439); assay type: in vitro ADME
T1 sequence (O15439 1-1325): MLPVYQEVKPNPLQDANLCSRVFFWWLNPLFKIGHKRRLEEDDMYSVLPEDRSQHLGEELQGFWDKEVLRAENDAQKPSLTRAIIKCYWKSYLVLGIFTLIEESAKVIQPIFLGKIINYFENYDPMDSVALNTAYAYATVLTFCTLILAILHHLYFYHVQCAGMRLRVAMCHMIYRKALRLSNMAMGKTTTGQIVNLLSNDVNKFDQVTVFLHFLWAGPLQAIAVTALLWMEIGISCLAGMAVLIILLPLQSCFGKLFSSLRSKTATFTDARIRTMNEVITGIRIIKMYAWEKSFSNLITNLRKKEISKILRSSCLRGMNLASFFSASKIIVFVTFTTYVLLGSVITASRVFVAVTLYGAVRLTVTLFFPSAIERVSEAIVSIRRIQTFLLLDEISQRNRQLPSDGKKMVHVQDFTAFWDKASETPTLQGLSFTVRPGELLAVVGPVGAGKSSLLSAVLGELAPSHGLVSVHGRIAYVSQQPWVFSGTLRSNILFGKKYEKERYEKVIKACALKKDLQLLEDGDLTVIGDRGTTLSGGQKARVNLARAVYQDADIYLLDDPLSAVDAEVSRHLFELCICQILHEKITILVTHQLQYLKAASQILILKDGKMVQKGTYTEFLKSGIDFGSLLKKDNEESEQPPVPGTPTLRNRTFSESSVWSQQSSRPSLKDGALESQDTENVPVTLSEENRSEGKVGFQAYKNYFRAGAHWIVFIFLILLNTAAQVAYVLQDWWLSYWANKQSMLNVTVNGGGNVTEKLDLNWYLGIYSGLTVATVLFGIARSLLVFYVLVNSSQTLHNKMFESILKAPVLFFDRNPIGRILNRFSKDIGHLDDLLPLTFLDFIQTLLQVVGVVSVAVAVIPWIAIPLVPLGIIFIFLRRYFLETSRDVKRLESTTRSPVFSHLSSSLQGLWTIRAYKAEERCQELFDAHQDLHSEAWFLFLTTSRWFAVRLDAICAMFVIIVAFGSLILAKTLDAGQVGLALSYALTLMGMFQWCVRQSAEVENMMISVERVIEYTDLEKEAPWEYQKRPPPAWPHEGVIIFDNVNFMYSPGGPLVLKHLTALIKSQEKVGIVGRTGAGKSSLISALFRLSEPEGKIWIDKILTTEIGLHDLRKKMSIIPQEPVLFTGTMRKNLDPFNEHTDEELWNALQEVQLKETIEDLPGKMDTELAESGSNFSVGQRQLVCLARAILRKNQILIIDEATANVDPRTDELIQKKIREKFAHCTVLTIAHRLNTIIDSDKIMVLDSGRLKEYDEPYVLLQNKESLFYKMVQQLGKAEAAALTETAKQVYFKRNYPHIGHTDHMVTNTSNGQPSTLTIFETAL

[3] = target: T2, HeLa1A1 cell lysate (Homo sapiens, UniProt P22309); assay: Chemical inhibition of cycloicaritin-3-O-glucuronidation by HeLa1A1 cell lysate; assay type: biochemical; settings: cycloicaritin 8 μM
T2 sequence (P22309 26-533): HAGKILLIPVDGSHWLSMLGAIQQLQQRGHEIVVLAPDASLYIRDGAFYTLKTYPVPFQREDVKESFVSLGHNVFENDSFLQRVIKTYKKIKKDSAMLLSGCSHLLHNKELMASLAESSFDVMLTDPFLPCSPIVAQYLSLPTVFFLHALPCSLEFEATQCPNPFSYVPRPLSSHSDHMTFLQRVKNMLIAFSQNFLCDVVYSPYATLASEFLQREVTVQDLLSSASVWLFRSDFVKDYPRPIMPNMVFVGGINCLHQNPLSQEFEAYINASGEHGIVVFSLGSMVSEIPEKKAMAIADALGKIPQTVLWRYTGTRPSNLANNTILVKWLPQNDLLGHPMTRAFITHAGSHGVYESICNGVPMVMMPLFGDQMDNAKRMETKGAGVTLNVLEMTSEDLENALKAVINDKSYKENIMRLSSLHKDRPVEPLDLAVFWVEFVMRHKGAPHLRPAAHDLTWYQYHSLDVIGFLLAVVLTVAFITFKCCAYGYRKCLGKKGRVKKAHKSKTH

[4] = target: T3, recombinant UGT1A1 (Homo sapiens, UniProt P22309); assay: Chemical inhibition of cycloicaritin-3-O-glucuronidation by recombinant UGT1A1; assay type: biochemical; settings: cycloicaritin 8 μM
T3 sequence (P22309 26-533): T2 sequence (P22309 26-533)

[5] = test system: MRPs; assay: Effects of MRPs inhibitors on excretion of CICT-3-G in HeLa1A1 cells; assay type: cell-based, human; settings: inhibitor 0.05 and 0.2 μM, cycloicaritin 8 μM
[6] = target: T3, recombinant UGT1A1; assay: Kinetics of cycloicaritin-3-O-glucuronidation by recombinant UGT1A1; assay type: in vitro ADME; settings: Hill equation
[7] = Metabolite formation from cycloicaritin by wild-type HeLa cell lysate; assay type: in vitro ADME, human; settings: cycloicaritin 8 μM, 2 h
[8] = target: T2, HeLa1A1 cell lysate; assay: Kinetics of cycloicaritin-3-O-glucuronidation by HeLa1A1 cell lysate; assay type: in vitro ADME; settings: Hill equation
[9] = cited from earlier work
[10] = cited from earlier work; remark: listed apart in the source

Sequence of MRP1 (P33527 whole entry): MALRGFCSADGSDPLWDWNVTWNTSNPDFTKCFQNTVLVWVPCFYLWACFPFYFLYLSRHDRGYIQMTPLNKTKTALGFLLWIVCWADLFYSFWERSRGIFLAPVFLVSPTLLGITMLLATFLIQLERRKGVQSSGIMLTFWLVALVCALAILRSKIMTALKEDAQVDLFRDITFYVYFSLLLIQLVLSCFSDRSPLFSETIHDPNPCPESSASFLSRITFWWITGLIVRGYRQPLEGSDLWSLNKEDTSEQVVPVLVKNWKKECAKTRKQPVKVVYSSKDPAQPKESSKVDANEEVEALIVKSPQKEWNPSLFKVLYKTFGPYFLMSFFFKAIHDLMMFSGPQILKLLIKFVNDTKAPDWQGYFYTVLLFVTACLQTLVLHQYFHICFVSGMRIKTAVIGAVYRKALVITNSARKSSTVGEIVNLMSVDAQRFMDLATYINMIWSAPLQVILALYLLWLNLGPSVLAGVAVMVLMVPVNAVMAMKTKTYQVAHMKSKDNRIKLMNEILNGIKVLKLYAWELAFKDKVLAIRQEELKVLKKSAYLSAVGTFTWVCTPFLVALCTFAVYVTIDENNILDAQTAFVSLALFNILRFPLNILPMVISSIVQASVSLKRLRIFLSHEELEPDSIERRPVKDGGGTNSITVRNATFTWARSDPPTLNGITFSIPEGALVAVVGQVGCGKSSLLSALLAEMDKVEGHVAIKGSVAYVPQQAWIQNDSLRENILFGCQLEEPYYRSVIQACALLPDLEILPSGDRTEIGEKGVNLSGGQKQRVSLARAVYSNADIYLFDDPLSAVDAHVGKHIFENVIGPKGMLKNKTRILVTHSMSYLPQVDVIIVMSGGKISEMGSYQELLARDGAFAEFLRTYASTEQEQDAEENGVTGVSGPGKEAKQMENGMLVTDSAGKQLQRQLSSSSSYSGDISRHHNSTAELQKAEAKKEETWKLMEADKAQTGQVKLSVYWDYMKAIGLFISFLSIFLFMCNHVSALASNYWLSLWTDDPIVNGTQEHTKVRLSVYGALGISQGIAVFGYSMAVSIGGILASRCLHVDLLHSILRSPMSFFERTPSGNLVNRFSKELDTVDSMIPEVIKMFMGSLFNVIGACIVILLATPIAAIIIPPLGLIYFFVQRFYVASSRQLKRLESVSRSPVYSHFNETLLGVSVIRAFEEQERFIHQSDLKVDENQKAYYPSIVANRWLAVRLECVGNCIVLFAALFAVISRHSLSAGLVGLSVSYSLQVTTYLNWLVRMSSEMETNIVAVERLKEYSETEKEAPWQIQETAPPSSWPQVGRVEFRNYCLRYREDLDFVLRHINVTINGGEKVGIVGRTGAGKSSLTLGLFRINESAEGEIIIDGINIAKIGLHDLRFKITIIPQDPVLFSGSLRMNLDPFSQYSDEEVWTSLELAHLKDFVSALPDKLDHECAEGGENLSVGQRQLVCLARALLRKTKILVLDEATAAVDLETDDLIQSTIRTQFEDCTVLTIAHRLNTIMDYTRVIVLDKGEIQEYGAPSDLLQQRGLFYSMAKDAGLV

## COc1ccc(-c2oc3c4c(cc(O)c3c(=O)c2O[C@@H]2O[C@H](C(=O)O)[C@@H](O)[C@H](O)[C@H]2O)OC(C)(C)CC4)cc1 [CICT-3-G, cycloicaritin-3-O-glucuronide]
[1]
  decrease of the efflux clearance of CICT-3-G: 52.0%
[2]
  decrease in the efflux clearance of CICT-3-G: 28.7%

## COc1ccc2c3c([nH]c2c1)[C@H](CC(C)C)N1C(=O)[C@H](CCC(=O)OC(C)(C)C)NC(=O)[C@@H]1C3 [Ko143]
[3]; inhibitor 20 μM
  remaining cycloicaritin-3-O-glucuronidation activity, % of the control values: 8.8%
[4]; inhibitor 20 μM
  remaining cycloicaritin-3-O-glucuronidation activity, % of the control values: 12.5%

## CCCCC/C=C\C\C=C/C=C/C=C/[C@@H](SC[C@H](NC(=O)CC[C@H](N)C(=O)O)C(=O)NCC(=O)O)[C@@H](O)CCCC(=O)O [LTC4, leukotriene C4]
[3]; inhibitor 0.05 and 0.2 μM
  effect on cycloicaritin-3-O-glucuronidation activity: did not alter
[4]; inhibitor 0.05 and 0.2 μM
  effect on cycloicaritin-3-O-glucuronidation activity: did not alter
[5]
  effect on CLapp value of CICT-3-G: no significant changes
  effect on fmet value of CICT-3-G: no significant changes
  effect on the intracellular level of CICT-3-G: did not alter
  effect on the rate of efflux excretion of CICT-3-G: did not alter

## COc1ccc(-c2oc3c4c(cc(O)c3c(=O)c2O)OC(C)(C)CC4)cc1 [cycloicaritin, Cycloicaritin]
[6]
  CLmax of cycloicaritin-3-O-glucuronidation: 190 µL/min/mg
  S50 of cycloicaritin-3-O-glucuronidation: 1.43 µM
  n (Hill coefficient) of cycloicaritin-3-O-glucuronidation: 1.67 µM
[6]; cycloicaritin 0.1-10 μM
  Vmax of cycloicaritin-3-O-glucuronidation: 0.54 nmol/min/mg
[7]
  metabolites detected after incubation with cell lysate: no metabolites were detected
[8]
  CLmax of cycloicaritin-3-O-glucuronidation: 17 µL/min/mg
  S50 of cycloicaritin-3-O-glucuronidation: 1.19 µM
  n (Hill coefficient) of cycloicaritin-3-O-glucuronidation: 1.71 µM
[8]; cycloicaritin 0.1-10 μM
  Vmax of cycloicaritin-3-O-glucuronidation: 0.04 nmol/min/mg

## COc1ccc(-c2oc3c(CC=C(C)C)c(O)cc(O)c3c(=O)c2O)cc1 [icaritin]
[9]
  CLint of glucuronidation in human intestine: > 180 µL/min/mg
[10]
  CLint of glucuronidation in human liver: > 350 µL/min/mg

## COc1ccc(-c2oc3c(CCC(C)(C)O)c(O)cc(O)c3c(=O)c2O)cc1 [wushanicaritin]
[9]
  CLint of glucuronidation in human intestine: > 180 µL/min/mg
[10]
  CLint of glucuronidation in human liver: > 350 µL/min/mg
